In ChEMBL document CHEMBL5375982, “How Modulator Binding at the Amyloidβ-γ-Secretase Interface Enhances Substrate Binding and Attenuates Membrane Distortion” (J Med Chem, 2023) one finds Activity data, which are given here for 1 compound.

Type in all cases: cell-based
In test [1] the target is T1, Gamma-secretase (Homo sapiens) (UniProt Q96BI3+Q9NZ42+Q8WW43+P49768+Q92542+P49810). In words: Modulation of gamma-secretase activity in HEK293T cells transfected with APP C99 K28D mutant assessed as […] in amyloidbeta37 to amyloidbeta40 ratio at 10 uM incubated for 24 to 30 hrs by ELISA. As to conditions: filed as modulator, time 24-30 hrs.
Test [2] concerns the target T1, Gamma-secretase (Homo sapiens). In words: Modulation of gamma-secretase activity in HEK293T cells transfected with wild type APP C99 assessed as increase in processivity at 10 uM incubated for 24 to 30 hrs by ELISA. As to conditions: filed as modulator, time 24-30 hrs.
Test [3] shares this target. In words: Modulation of gamma-secretase activity in HEK293T cells transfected with APP C99 K28E mutant assessed as […] in amyloidbeta37 to amyloidbeta40 ratio at 10 uM incubated for 24 to 30 hrs by ELISA. Conditions: filed as modulator, time 24-30 hrs.
The target is the same in test [4]. In words: Modulation of gamma-secretase activity in HEK293T cells transfected with APP C99 K28E mutant assessed as increase in processivity at 10 uM incubated for 24 to 30 hrs by ELISA. As to conditions: time 24-30 hrs.
For test [5] the target is unchanged. In words: Modulation of gamma-secretase activity in HEK293T cells transfected with APP C99 K28R mutant assessed as increase in processivity at 10 uM incubated for 24 to 30 hrs by ELISA. Conditions: filed as modulator, time 24-30 hrs.
The target is the same in test [6]. In words: Modulation of gamma-secretase activity in HEK293T cells transfected with APP C99 K28D mutant assessed as increase in processivity at 10 uM incubated for 24 to 30 hrs by ELISA. As to conditions: time 24-30 hrs.

Calls of active or inactive are those of the source. The rule behind the calls is not given here.

Regarding `COc1cc(/C=C2\CCCN([C@@H](C)c3ccc(F)cc3)C2=O)ccc1-n1cnc(C)c1`, the result in test [1], in test [2], in test [3] and in test [5] was Active. Moreover, the outcome in test [4] and in test [6] was inactive.
